Earlier results, collected in patent US20200254002A1, “COMBINATION THERAPIES FOR TREATING MUSCULAR DYSTROPHY” (SAREPTA THERAPEUTICS, INC., priority 2017, published 2020).
“Also recorded” adds a separate entry of the source. Where two headings read alike, the source gives them in different places. Each block holds one molecule with its values, some of them ahead of it.

Key:
[1] = phase I clinical program in adults
cNF-κB = details: in vitro
ryanodine receptor = details: patient cells and a mouse model of DMD
dystrophin = details: DMD patients
[2] = test system: exon 53 of dystrophin pre-mRNA; details: for Exon skipping in DMD patients: all 25 patients, at least 48 weekly doses
immune response = details: rat, in vivo
human DMD transcript = details: hDMD mouse model
[3] = test system: normal human skeletal muscle cells or muscle cells from DMD patients; details: RT-PCR and Western blot
[4] = Part 2/Pl patients, 48-51 weeks
[5] = Part 1 patients, 60-76 weeks dosing
[6] = Part 2 patients, ~48-51 weeks dosing

Molecule: CC/C=C\C/C=C\C/C=C\C/C=C\C/C=C\C/C=C\CCC(=O)NCCNC(=O)c1ccccc1O [CAT-1004, N-(2-[(4Z,7Z,10Z,13Z,16Z,19Z)-docosa-4,7,10,13,16,19-hexaenamido]ethyl)-2-hydroxybenzamide]
Safety and tolerability [1]: safe, well tolerated

Molecule: CC/C=C\C/C=C\C/C=C\C/C=C\C/C=C\CCCC(=O)NCCNC(=O)c1ccccc1O [CAT-1041]
cNF-κB activation (cNF-κB): inhibit cNF-κB activation in vitro
Dystrophic phenotype (NF-κB p65; GRMD dog, long-term treatment): improves the phenotype
Diaphragm function (NF-κB p65; dog DMD model): improved diaphragm function
Exercise endurance (Mdx mice; mdx mice): increased exercise endurance
Inflammation and fibrosis (Mdx mice; mdx mice): reduced inflammation and fibrosis
Muscle fibrosis (Mdx mice; mdx mice, long-term studies): reduces muscle fibrosis
Muscle function (Mdx mice; mdx mice, long-term studies): preserves muscle function
Skeletal muscle weight (Mdx mice; mdx mice, long-term studies): increases skeletal muscle weight
Dystrophic phenotype (Mdx mice; mdx mouse, long-term treatment): improves the phenotype
Diaphragm function (Mdx mice; mouse DMD model): improved diaphragm function

Antisense-mediated exon skipping (ryanodine receptor): enhance antisense-mediated exon skipping
Molecule: O=C1CN(/N=C/c2ccc(-c3ccc([N+](=O)[O-])cc3)o2)C(O)=N1 [dantrolene]

Molecule: all-P-ambo-[P,2′,3′-trideoxy-P-(dimethylamino)-2′,3′-imino-2′,3′-seco](2′a[…]5′)(GTTGCCTCCGGTTCTGAAGGTGTTC) 5′-[4-({2-[2-(2-hydroxyethoxy)ethoxy]ethoxy}carbonyl)-N,N-dimethylpiperazine-1-phosphonamidate] [SRP-4053]
Mean fiber intensity, de novo dystrophin (dystrophin; above baseline): statistically significant increase (p<0.001) above baseline in de novo dystrophin
Sarcolemmal dystrophin localization (dystrophin; listed as Golodirsen): correctly localized to the sarcolemma membrane; also recorded: observed in all patients
Decrease from Baseline (RT-PCR, patients) ([2]; All patients): 0
Fold Increase (RT-PCR exon skipping) ([2]; All patients): 7.3
Increase > 0.1 from Baseline (RT-PCR, patients) ([2]; All patients): 25 (100.0%)
Increase from Baseline (RT-PCR, patients) ([2]; All patients): 25 (100.0%)
No Increase > 0.1 from Baseline (RT-PCR, patients) ([2]; All patients): 0
Unchanged from Baseline (RT-PCR, patients) ([2]; All patients): 0
Decrease from Baseline (RT-PCR, patients) ([2]; Part 1 patients, 60-76 weeks): 0
Increase > 0.1 from Baseline (RT-PCR, patients) ([2]; Part 1 patients, 60-76 weeks): 8 (100.0%)
Increase from Baseline (RT-PCR, patients) ([2]; Part 1 patients, 60-76 weeks): 8 (100.0%)
No Increase > 0.1 from Baseline (RT-PCR, patients) ([2]; Part 1 patients, 60-76 weeks): 0
Unchanged from Baseline (RT-PCR, patients) ([2]; Part 1 patients, 60-76 weeks): 0
Decrease from Baseline (RT-PCR, patients) [2, 4]: 0
Increase > 0.1 from Baseline (RT-PCR, patients) [2, 4]: 17 (100.0%)
Increase from Baseline (RT-PCR, patients) [2, 4]: 17 (100.0%)
No Increase > 0.1 from Baseline (RT-PCR, patients) [2, 4]: 0
Unchanged from Baseline (RT-PCR, patients) [2, 4]: 0
Exon skipping in DMD patients [2]: increase over baseline levels in exon skipping
Exon skipping in DMD patients ([2]; listed as Golodirsen): observed in all patients
Mean Change from baseline (SD), dystrophin by Western blot (dystrophin protein; All patients): 0.92 (1.01)
On treatment Mean % normal (SD), dystrophin by Western blot (dystrophin protein; All patients): 1.02 (1.03) % normal
Dystrophin protein as measured by Western blot (dystrophin protein; DMD patients, over baseline): statistically significant increase over baseline in dystrophin protein
Mean Change from baseline (SD), dystrophin by Western blot (dystrophin protein; [5]): 1.29 (1.51)
On treatment Mean % normal (SD), dystrophin by Western blot (dystrophin protein; [5]): 1.40 (1.57) % normal
Mean Change from baseline (SD), dystrophin by Western blot (dystrophin protein; [6]): 0.75 (0.67)
On treatment Mean % normal (SD), dystrophin by Western blot (dystrophin protein; [6]): 0.84 (0.64) % normal
Baseline Mean % normal (SD), dystrophin by Western blot (dystrophin protein; All patients): 0.09 (0.07) % normal
Baseline Mean % normal (SD), dystrophin by Western blot (dystrophin protein; [5]): 0.10 (0.09) % normal
Baseline Mean % normal (SD), dystrophin by Western blot (dystrophin protein; [6]): 0.09 (0.06) % normal

Molecule: eteplirsen
Effect on the immune response (immune response): no adverse effect on the immune response
Exon 51 skipping in vivo (human DMD transcript): confirmed in vivo
Exon 51 skipping in vitro [3]: potent inducer of exon 51 skipping
